From patent publication EP3478687B1 (Daewoong Pharmaceutical Co., Ltd., priority 2016, dated 2018)

Legend:
[1] = target: T1, Recombinant purified human JAK3 (Homo sapiens, UniProt P52333); experiment: JAK3 kinase inhibitory activity, ADP-Glo kinase assay (Promega V9441); type: biochemical; details: ATP 5 uM, 4 ng JAK3 per reaction, 1 hour 30 °C, chemiluminescence
T1 construct: purchased Promega V9441
T1 sequence (P52333 1-1124): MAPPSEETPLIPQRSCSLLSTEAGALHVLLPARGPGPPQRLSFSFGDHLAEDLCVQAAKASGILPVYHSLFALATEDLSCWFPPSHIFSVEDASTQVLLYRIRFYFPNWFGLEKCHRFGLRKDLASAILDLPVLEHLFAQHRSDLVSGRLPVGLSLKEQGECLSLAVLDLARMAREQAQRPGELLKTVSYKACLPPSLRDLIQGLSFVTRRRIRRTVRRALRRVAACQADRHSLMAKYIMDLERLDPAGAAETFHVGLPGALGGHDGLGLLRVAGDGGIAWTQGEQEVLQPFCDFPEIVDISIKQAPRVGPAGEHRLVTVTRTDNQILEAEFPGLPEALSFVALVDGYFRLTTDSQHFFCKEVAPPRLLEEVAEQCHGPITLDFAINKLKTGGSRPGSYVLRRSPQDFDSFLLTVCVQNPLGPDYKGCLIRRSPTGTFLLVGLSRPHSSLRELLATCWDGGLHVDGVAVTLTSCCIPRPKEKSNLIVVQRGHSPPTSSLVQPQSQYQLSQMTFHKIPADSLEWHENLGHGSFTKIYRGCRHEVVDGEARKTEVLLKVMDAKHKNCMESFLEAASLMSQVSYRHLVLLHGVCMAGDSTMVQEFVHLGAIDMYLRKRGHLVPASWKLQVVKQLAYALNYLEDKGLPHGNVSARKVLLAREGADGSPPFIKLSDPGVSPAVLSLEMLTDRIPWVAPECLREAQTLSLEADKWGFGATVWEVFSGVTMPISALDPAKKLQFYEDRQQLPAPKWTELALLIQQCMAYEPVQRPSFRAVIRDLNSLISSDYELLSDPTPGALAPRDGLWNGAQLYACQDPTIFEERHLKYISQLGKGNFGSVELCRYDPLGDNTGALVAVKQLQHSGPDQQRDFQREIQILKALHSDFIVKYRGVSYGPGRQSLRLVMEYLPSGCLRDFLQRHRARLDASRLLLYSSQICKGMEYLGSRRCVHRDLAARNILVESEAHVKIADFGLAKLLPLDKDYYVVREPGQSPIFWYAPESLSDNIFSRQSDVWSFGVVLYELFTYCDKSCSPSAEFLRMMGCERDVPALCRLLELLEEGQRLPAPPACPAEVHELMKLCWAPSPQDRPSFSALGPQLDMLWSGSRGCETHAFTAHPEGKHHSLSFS
Summary of the method: (§1)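 IC50 values come from ADP-Glo luminescence after 1 h kinase reactions at 30 °C in 1% DMSO on 0.2 µg/µL Poly(Glu4,Tyr1) substrate. ATP was 10 µM for BTK (8 ng, buffer containing MnCl2) and 5 µM for JAK3 (4 ng), in Tris-Cl pH 7.5/MgCl2/BSA/DTT.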

[2] = target: T2, Recombinant purified human BTK (Homo sapiens, UniProt Q06187); experiment: BTK kinase inhibitory activity, ADP-Glo kinase assay (Promega V9071); type: biochemical; details: ATP 10 uM, 8 ng BTK per reaction, 1 hour 30 °C, chemiluminescence
T2 construct: purchased Promega V9071
T2 sequence (Q06187 whole entry): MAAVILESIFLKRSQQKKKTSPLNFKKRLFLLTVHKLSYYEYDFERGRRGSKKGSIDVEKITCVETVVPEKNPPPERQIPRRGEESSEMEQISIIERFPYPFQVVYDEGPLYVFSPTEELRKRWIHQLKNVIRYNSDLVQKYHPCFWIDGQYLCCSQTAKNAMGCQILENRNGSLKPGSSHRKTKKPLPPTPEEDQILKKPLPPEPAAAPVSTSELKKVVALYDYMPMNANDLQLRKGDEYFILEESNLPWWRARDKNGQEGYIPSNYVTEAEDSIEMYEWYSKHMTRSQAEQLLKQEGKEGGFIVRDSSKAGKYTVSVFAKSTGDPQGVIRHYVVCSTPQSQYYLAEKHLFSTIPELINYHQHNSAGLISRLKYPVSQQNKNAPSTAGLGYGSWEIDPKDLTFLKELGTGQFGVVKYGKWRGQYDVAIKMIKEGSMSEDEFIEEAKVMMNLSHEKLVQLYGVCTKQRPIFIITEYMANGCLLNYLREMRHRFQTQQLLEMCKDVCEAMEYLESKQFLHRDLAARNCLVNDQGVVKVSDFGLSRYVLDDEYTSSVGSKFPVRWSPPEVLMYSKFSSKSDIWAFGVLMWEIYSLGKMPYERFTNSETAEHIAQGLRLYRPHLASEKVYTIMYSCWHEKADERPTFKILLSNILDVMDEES
Summary of the method: as §1

| IC50 [1] | IC50 [2] | SMILES |
| --- | --- | --- |
| 1.6 nM | 1.8 nM | C=CC(=O)N1CCC[C@@H](Sc2nc(Nc3cnn(C(C)(C)C)c3)nc3[nH]nc(Cl)c23)C1 [Example 112, (R)-1-(3-((6-((1-(tert-butyl)-1H-pyrazol-4-yl)amino)-3-chloro-1H-pyrazolo [3,4-d]pyrimidin-4-yl)thio)piperidin-1-yl)prop-2-en-1-one] |
| 2.8 nM | 2.3 nM | C=CC(=O)N1CCC[C@@H](Sc2nc(Nc3cnn(CC(C)C)c3)nc3[nH]nc(Cl)c23)C1 [Example 113, (R)-1-(3-((3-chloro-6-((1-isobutyl-1H-pyrazol-4-yl)amino)-1H-pyrazolo[3,4-d]pyrimidin-4-yl)thio)piperidin-1-yl)prop-2-en-1-one] |
| 1.7 nM | 2 nM | C=CC(=O)N1CCC[C@@H](Sc2nc(Nc3cnn(CCC)c3)nc3[nH]nc(Cl)c23)C1 [Example 115, (R)-1-(3-((3-chloro-6-((1-propyl-1H-pyrazol-4-yl)amino)-1H-pyrazolo[3,4-d]pyrimidin-4-yl)thio)piperidin-1-yl)prop-2-en-1-one] |
| 19.5 nM | 25.3 nM | C=CC(=O)N1CCC[C@@H](Sc2nc(Nc3cnoc3)nc3[nH]nc(Cl)c23)C1 [Example 116, (R)-1-(3-((3-chloro-6-(isoxazol-4-ylamino)-1H-pyrazolo [3,4-d]pyrimidin-4-yl)thio)piperidin-1-yl)prop-2-en-1-one] |
| 7.8 nM | 7.5 nM | C=CC(=O)N1CC[C@@H](C)[C@@H](Nc2nc(Nc3cnn(CC(F)(F)F)c3)nc3[nH]nc(Cl)c23)C1 [Example 120, 1-((3R,4R)-3-((3-chloro-6-((1-(2,2,2-trifluoroethyl)-1H-pyrazol-4-yl)amino)-1H-pyrazolo[3,4-d]pyrimidin-4-yl)amino)-4-methylpiperidin-1-yl)prop-2-en-1-one] |
| 8.1 nM | 6 nM | C=CC(=O)N1CC[C@@H](C)[C@@H](Nc2nc(Nc3cnn(CCN(CC)CC)c3)nc3[nH]nc(Cl)c23)C1 [Example 122, 1-((3R,4R)-3-((3-chloro-6-((1-(2-(diethylamino)ethyl)-1H-pyrazol-4-yl)amino)-1H-pyrazolo[3,4-d]pyrimidin-4-yl)amino)-4-methylpiperidin-1-yl)prop-2-en-1-one] |
| 8.4 nM | 3.5 nM | C=CC(=O)N1CC[C@@H](C)[C@@H](Nc2nc(Nc3cnn(CC(C)C)c3)nc3[nH]nc(Cl)c23)C1 [Example 124, 1-((3R,4R)-3-((3-chloro-6-((1-isobutyl-1H-pyrazol-4-yl)amino)-1H-pyrazolo[3,4-d]pyrimidin-4-yl)amino)-4-methylpiperidin-1-yl)prop-2-en-1-one] |
| 2.9 nM | 1.2 nM | C=CC(=O)N1CC[C@@H](C)[C@@H](Nc2nc(Nc3cnn(CC#N)c3)nc3[nH]nc(Cl)c23)C1 [Example 126, 2-(4-((4-(((3R,4R)-1-acryloyl-4-methylpiperidin-3-yl)amino)-3-chloro-1H-pyrazolo[3,4-d]pyrimidin-6-yl)amino)-1H-pyrazol-1-yl)acetonitrile] |
| 14.6 nM | 5.8 nM | C=CC(=O)N1CC[C@@H](C)[C@@H](Nc2nc(Nc3cnn(C)c3)nc3[nH]nc(Cl)c23)C1 [Example 128] |
| 42.3 nM | 2.3 nM | C=CC(=O)N1CCC[C@@H](Nc2nc(Nc3cnn(C4CC4)c3)nc3[nH]nc(SC)c23)C1 [Example 129] |
| 25.5 nM | 2.1 nM | C=CC(=O)N1CC[C@@H](C)[C@@H](Nc2nc(Nc3cnn(CC)c3)nc3[nH]nc(SC)c23)C1 [Example 132, 1-((3R,4R)-3-((6-((1-ethyl-1H-pyrazol-4-yl)amino)-3-(methylthio)-1H-pyrazolo[3,4-d]pyrimidin-4-yl)amino)-4-methylpiperidin-1-yl)prop-2-en-1-one] |
| 42.3 nM | 2.3 nM | C=CC(=O)N1CC[C@@H](C)[C@@H](Nc2nc(Nc3cnn(C4CC4)c3)nc3[nH]nc(SC)c23)C1 [Example 135, 1-((3R,4R)-3-((6-((1-cyclopropyl-1H-pyrazol-4-yl)amino)-3-(methylthio)-1H-pyrazolo[3,4-d]pyrimidin-4-yl)amino)-4-methylpiperidin-1-yl)prop-2-en-1-one] |

The remaining lines, values behind:

| SMILES | IC50 [1] | IC50 [2] |
| --- | --- | --- |
| C=CC(=O)N1CCC[C@@H](Sc2nc(Nc3cnn(CC(F)(F)F)c3)nc3[nH]nc(Cl)c23)C1 [Example 114, (R)-1-(3-((3-chloro-6-((1-(2,2,2-trifluoroethyl)-1H-pyrazol-4-yl)amino)-1H-pyrazolo [3,4-d]pyrimidin-4-yl)thio)piperidin-1-yl)prop-2-en-1-one] | 0.9 nM | 2.3 nM |
| C=CC(=O)N1CCC[C@@H](Nc2nc(Nc3cnoc3C)nc3[nH]nc(Cl)c23)C1 [Example 117] | > 400 nM | 81.2 nM |
| C=CC(=O)N1CCC[C@@H](N(C)c2nc(Nc3cnn(CC)c3)nc3[nH]nc(Cl)c23)C1 [Example 118, (R)-1-(3-((3-chloro-6-((1-ethyl-1H-pyrazol-4-yl)amino)-1H-pyrazolo[3,4-d]pyrimidin-4-yl)(methyl)amino)piperidin-1-yl)prop-2-en-1-one] | 3.2 nM | 1.3 nM |
| C=CC(=O)N1CCC[C@@H](N(C)c2nc(Nc3cnoc3)nc3[nH]nc(Cl)c23)C1 [Example 119] | 32.5 nM | 11.1 nM |
| C=CC(=O)N1CC[C@@H](C)[C@@H](Nc2nc(Nc3cnn(CCC)c3)nc3[nH]nc(Cl)c23)C1 [Example 121, 1-((3R,4R)-3-((3-chloro-6-((1-propyl-1H-pyrazol-4-yl)amino)-1H-pyrazolo[3,4-d]pyrimidin-4-yl)amino)-4-methylpiperidin-1-yl)prop-2-en-1-one] | 18 nM | 4.9 nM |
| C=CC(=O)N1CC[C@@H](C)[C@@H](Nc2nc(Nc3cnn(CCN4CCOCC4)c3)nc3[nH]nc(Cl)c23)C1 [Example 123, 1-((3R,4R)-3-((3-chloro-6-((1-(2-morpholinoethyl)-1H-pyrazol-4-yl)amino)-1H-pyrazolo[3,4-d]pyrimidin-4-yl)amino)-4-methylpiperidin-1-yl)prop-2-en-1-one] | 7.9 nM | 5.8 nM |
| C=CC(=O)N1CC[C@@H](C)[C@@H](Nc2nc(Nc3cnn(Cc4cccc(OC)c4)c3)nc3[nH]nc(Cl)c23)C1 [Example 125, 1-((3R,4R)-3-((3-chloro-6-((1-(3-methoaybenzyl)-1H-pyrazol-4-yl)amino)-1H-pyrazolo[3,4-d]pyrimidin-4-yl)amino)-4-methylpiperidin-1-yl)prop-2-en-1-one] | 20.4 nM | 8.2 nM |
| C=CC(=O)N1CC[C@@H](C)[C@@H](Nc2nc(Nc3cnn(C(F)F)c3)nc3[nH]nc(Cl)c23)C1 [Example 127, 1-((3R,4R)-3-((3-chloro-6-((1-(difluoromethyl)-1H-pyrazol-4-yl)amino)-1H-pyrazolo [3,4-d]pyrimidin-4-yl)amino)-4-methylpiperidin-1-yl)prop-2-en-1-one] | 43.1 nM | 1.5 nM |
| C=CC(=O)N1CCC[C@@H](N(C)c2nc(Nc3cnn(CC)c3)nc3[nH]nc(SC)c23)C1 [Example 131, (R)-1-(3-((6-((1-ethyl-1H-pyrazol-4-yl)amino)-3-(methylthio)-1H-pyrazolo [3,4-d]pyrimidin-4-yl)(methyl)amino)piperidin-1-yl)prop-2-en-1-one] | 24.5 nM | 1.6 nM |
| C=CC(=O)N1CC[C@@H](C)[C@@H](Nc2nc(Nc3cnn(CC(F)F)c3)nc3[nH]nc(SC)c23)C1 [Example 133, 1-((3R,4R)-3-((6-((1-(2,2-difluoroethyl)-1H-pyrazol-4-yl)amino)-3-(methylthio)-1H-pyrazolo [3,4-d]pyrimidin-4-yl)amino)-4-methylpiperidin-1-yl)prop-2-en-1-one] | 16 nM | 1.6 nM |
| C=CC(=O)N1CC[C@@H](C)[C@@H](Nc2nc(Nc3cnn(CC#N)c3)nc3[nH]nc(SC)c23)C1 [Example 134, 2-(4-((4-(((3R,4R)-1-acryloyl-4-methylpiperidin-3-yl)amino)-3-(methylthio)-1H-pyrazolo[3,4-d]pyrimidin-6-yl)amino)-1H-pyrazol-1-yl)acetonitrile] | 17.7 nM | 1.8 nM |
